Measured values published in US20250136606A1, “MODULATORS OF TRPML, THEIR COMPOSITIONS AND METHODS OF USE” (Caraway Therapeutics, Inc., priority 2021, published 2025).

Biological target: TRPML1 (Homo sapiens, UniProt Q9GZU1)
Assay: Fluorescent TRPML1 assay (Fluo4-AM calcium fluorescence in doxycycline-induced HEK-293 Trex cells)
Format: cell-based
Conditions: fluorescent calcium assay
Experimental: HEK-293 Trex cells were stably transfected with a construct consisting of the human coding sequence for TRPML1 cloned into the […] plasmid pCDNA5 T/O. Mutations were introduced into the TRPML1 sequence to facilitate expression on the cell surface (Silvia Vergarajauregui, Rosa Puertollano, Traffic. 2006 March; 7(3): 337-353). Briefly, the cells are cultured in 150 mm round tissue culture dishes containing 20 mL of media. The day before the assay the cells are rinsed with DPBS-Ca—Mg and then treated briefly with Trypsin-EDTA. The Trypsin-EDTA is diluted with growth media, and cells are counted. 38×10^6 cells are re-plated into 150 mm round tissue culture dishes in media containing 0.5 ug/mL doxycycline to induce expression of hTRPML1.
The day of the experiment cells are lifted from the plates as above and collected by centrifugation. The cells are then suspended in dye loading buffer consisting of Ringer's solution supplemented with 0.1% Pluronic Acid and 1 micromolar Fluo4-AM dye. Cells are loaded for ˜60 minutes in the dark with occasional mixing. The cells are collected by centrifugation, the loading media aspirated, and the cells resuspended in 25 mL Ringer's solution and incubated ˜60 minutes in the dark. The cells are again collected by centrifugation, rinsed in Ringer's Solution and resuspended to […] in modified Ringer's solution containing 10 mM calcium.
Compounds are dissolved to a concentration of 10 millimolar with DMSO. Compound plates are created by dispensing compounds into 384 well black wall clear bottom plates (Greiner 781091). Positive and negative controls are included on each plate. Typically, different amounts of each compound are tested ranging from 100 nanoMoles (20 micromolar final concentration) decreasing in half-log steps to 31 picoMoles (6 nanomolar final concentration). Each concentration is typically tested in triplicate.
50 microliters of dye-loaded cells are dispensed into each well of the compound assay plate created above. The fluorescence in each well is then determined with an excitation wavelength of 480 nm and an emission wavelength of 540 nm using either a Molecular Devices SpectraMax multimode plate reader or a Hamamatsu FDSS/uCell plate imager.
The resulting fluorescence for each well is exported as an ascii file and loaded into our LIMS for analysis. The percent activity of each compound at each concentration is determined by comparison to the positive and negative control wells included in each plate.
EC50 values were calculated using a non-linear regression of Prism. In the table, “A” indicates an EC50 of less than 100 nM, “B” indicates an EC50 range from 100 nM to 500 nM; “C” indicates an EC50 range from 500 nM to 2 μM; and “D” indicates an EC50 greater than 2 μM.

Sequence of TRPML1 (Q9GZU1 whole entry L15A/L16A/L577A/L578A, form open): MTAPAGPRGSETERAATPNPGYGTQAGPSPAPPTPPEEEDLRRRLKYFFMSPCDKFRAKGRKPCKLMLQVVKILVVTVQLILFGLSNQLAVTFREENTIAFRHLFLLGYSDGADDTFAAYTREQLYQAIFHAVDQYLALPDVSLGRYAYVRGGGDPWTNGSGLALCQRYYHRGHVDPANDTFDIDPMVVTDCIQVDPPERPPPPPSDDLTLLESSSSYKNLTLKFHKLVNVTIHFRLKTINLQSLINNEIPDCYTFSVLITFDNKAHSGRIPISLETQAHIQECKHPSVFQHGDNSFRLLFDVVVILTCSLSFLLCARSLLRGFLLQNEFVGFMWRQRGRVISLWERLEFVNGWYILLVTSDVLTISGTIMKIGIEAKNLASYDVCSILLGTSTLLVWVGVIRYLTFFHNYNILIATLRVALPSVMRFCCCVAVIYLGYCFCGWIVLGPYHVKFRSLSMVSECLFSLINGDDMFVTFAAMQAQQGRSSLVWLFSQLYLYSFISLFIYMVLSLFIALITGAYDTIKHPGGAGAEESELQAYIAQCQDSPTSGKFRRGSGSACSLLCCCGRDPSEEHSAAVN

Row | SMILES | EC50
1 | C[C@@H]1CN(c2ncnc3c2c(N2CCCC2)cn3-c2cccc(C#N)c2)CCN1C(=O)OC(C)(C)C [Compound 277, tert-butyl (R)-4-(7-(3-cyanophenyl)-5-(pyrrolidin-1-yl)-7H-pyrrolo[2,3-d]pyrimidin-4-yl)-2-methylpiperazine-1-carboxylate] | < 100 nM
2 | C[C@H]1CN(C(=O)OC(C)(C)C)CCN1c1ncnc2c1c(N1CCCC1)cn2-c1cc(F)c(F)c(F)c1 [Compound 356, tert-butyl (S)-3-methyl-4-(5-(pyrrolidin-1-yl)-7-(3,4,5-trifluorophenyl)-7H-pyrrolo[2,3-d]pyrimidin-4-yl)piperazine-1-carboxylate] | < 100 nM
3 | CC(C)(C)OC(=O)N1CCN(c2ncnc3c2c(C2CC2)cn3-c2cc(F)cc(F)c2)C[C@@H]1C(F)(F)F [Compound 276, tert-butyl (R)-4-(5-cyclopropyl-7-(3,5-difluorophenyl)-7H-pyrrolo[2,3-d]pyrimidin-4-yl)-2-(trifluoromethyl)piperazine-1-carboxylate] | < 100 nM
4 | C[C@@H]1CCCN1c1cn(-c2cccc(Cl)c2)c2ncnc(N3CCN(C(=O)OC(C)(C)C)C[C@@H]3C)c12 [Compound 286, tert-butyl (S)-4-(7-(3-chlorophenyl)-5-((R)-2-methylpyrrolidin-1-yl)-7H-pyrrolo[2,3-d]pyrimidin-4-yl)-3-methylpiperazine-1-carboxylate] | 100 to 500 nM
5 | C[C@H]1CN(C(=O)OC(C)(C)C)CCN1c1ncnc2c1c(C1CC1)cn2[C@@H]1C[C@@H]2CC[C@H]1C2 [Compound 361, tert-butyl (S)-4-(7-((1S,2R,4R)-bicyclo[2.2.1]heptan-2-yl)-5-cyclopropyl-7H-pyrrolo[2,3-d]pyrimidin-4-yl)-3-methylpiperazine-1-carboxylate] | < 100 nM
6 | C[C@H]1CN(C(=O)OC(C)(C)C)CCN1c1ncnc2c1c(-c1cccnc1)cn2-c1cccc(C#N)c1 [Compound 282, tert-butyl-(S)-4-(7-(3-cyanophenyl)-5-(pyridin-3-yl)-7H-pyrrolo[2,3-d]pyrimidin-4-yl)-3-methylpiperazine-1-carboxylate] | 100 to 500 nM
7 | C[C@H]1CN(C(=O)OC(C)(C)C)CCN1c1ncnc2c1c(-c1ccccn1)cn2-c1cccc(C#N)c1 [Compound 280, tert-butyl (S)-4-(7-(3-cyanophenyl)-5-(pyridin-2-yl)-7H-pyrrolo[2,3-d]pyrimidin-4-yl)-3-methylpiperazine-1-carboxylate] | 100 to 500 nM
8 | C[C@H]1CN(C(=O)OC(C)(C)C)CCN1c1ncnc2c1c(-c1cnccn1)cn2-c1cccc(C#N)c1 [Compound 297, tert-butyl (S)-4-(7-(3-cyanophenyl)-5-(pyrazin-2-yl)-7H-pyrrolo[2,3-d]pyrimidin-4-yl)-3-methylpiperazine-1-carboxylate] | 500 to 2000 nM
9 | C[C@H]1CN(C(=O)OC(C)(C)C)CCN1c1ncnc2c1c(N1CCC(C)(C)C1)cn2-c1cccc(C#N)c1 [Compound 358, tert-Butyl (S)-4-(7-(3-cyanophenyl)-5-(3,3-dimethylpyrrolidin-1-yl)-7H-pyrrolo[2,3-d]pyrimidin-4-yl)-3-methylpiperazine-1-carboxylate] | < 100 nM
10 | COc1cccc(-n2cc(-c3nccnc3C)c3c(N4CCN(C(=O)OC(C)(C)C)C[C@@H]4C)ncnc32)c1 [Compound 293, tert-butyl (S)-4-(7-(3-methoxyphenyl)-5-(3-methylpyrazin-2-yl)-7H-pyrrolo[2,3-d]pyrimidin-4-yl)-3-methylpiperazine-1-carboxylate] | 500 to 2000 nM
11 | COc1cccc(-n2cc(-c3cnccn3)c3c(N4CCN(C(=O)OC(C)(C)C)C[C@@H]4C)ncnc32)c1 [Compound 295, tert-butyl (S)-4-(7-(3-methoxyphenyl)-5-(pyrazin-2-yl)-7H-pyrrolo[2,3-d]pyrimidin-4-yl)-3-methylpiperazine-1-carboxylate] | 500 to 2000 nM
12 | C[C@H]1CN(C(=O)OC(C)(C)C)CCN1c1ncnc2c1c(N1CCC[C@H]1CO)cn2-c1cccc(Cl)c1 [Compound 298, tert-butyl (S)-4-(7-(3-chlorophenyl)-5-((S)-2-(hydroxymethyl)pyrrolidin-1-yl)-7H-pyrrolo[2,3-d]pyrimidin-4-yl)-3-methylpiperazine-1-carboxylate] | 500 to 2000 nM
13 | C[C@H]1CN(C(=O)OC(C)(C)C)CCN1c1ncnc2c1c(C1CC1)cn2-c1cc(F)cc(C#N)c1 [Compound 291, tert-butyl (S)-4-(7-(3-cyano-5-fluorophenyl)-5-cyclopropyl-7H-pyrrolo[2,3-d]pyrimidin-4-yl)-3-methylpiperazine-1-carboxylate] | < 100 nM
14 | C[C@H]1CN(C(=O)OC(C)(C)C)CCN1c1ncnc2c1c(C1CC1)cn2-c1cc(C#N)cc(C#N)c1 [Compound 292, tert-butyl (S)-4-(5-cyclopropyl-7-(3,5-dicyanophenyl)-7H-pyrrolo[2,3-d]pyrimidin-4-yl)-3-methylpiperazine-1-carboxylate] | 100 to 500 nM
15 | COc1cccc(-n2cc(-c3ccccn3)c3c(N4CCN(C(=O)OC(C)(C)C)C[C@@H]4C)ncnc32)c1 [Compound 278, tert-butyl (S)-4-(7-(3-methoxyphenyl)-5-(pyridin-2-yl)-7H-pyrrolo[2,3-d]pyrimidin-4-yl)-3-methylpiperazine-1-carboxylate] | 500 to 2000 nM
16 | C[C@@H]1CN(c2ncnc3c2c(N2CCCCC2)cn3-c2cccc(Cl)c2)CCN1C(=O)OC(C)(C)C [Compound 287, tert-butyl (R)-4-(7-(3-chlorophenyl)-5-(piperidin-1-yl)-7H-pyrrolo[2,3-d]pyrimidin-4-yl)-2-methylpiperazine-1-carboxylate] | < 100 nM
17 | C[C@H]1CN(C(=O)OC(C)(C)C)CCN1c1ncnc2c1c(C1CC1)nn2-c1cccc(C#N)c1 [Compound 357, tert-butyl (S)-4-(1-(3-cyanophenyl)-3-cyclopropyl-1H-pyrazolo[3,4-d]pyrimidin-4-yl)-3-methylpiperazine-1-carboxylate] | < 100 nM
18 | C[C@H]1CN(C(=O)OC(C)(C)C)CCN1c1ncnc2c1c(C1CC1)cn2-c1ccc(F)c(C#N)c1 [Compound 290, tert-butyl (S)-4-(7-(3-cyano-4-fluorophenyl)-5-cyclopropyl-7H-pyrrolo[2,3-d]pyrimidin-4-yl)-3-methylpiperazine-1-carboxylate] | < 100 nM
19 | Cc1nccnc1-c1cn(-c2cccc(C#N)c2)c2ncnc(N3CCN(C(=O)OC(C)(C)C)C[C@@H]3C)c12 [Compound 294, tert-butyl (S)-4-(7-(3-cyanophenyl)-5-(3-methylpyrazin-2-yl)-7H-pyrrolo[2,3-d]pyrimidin-4-yl)-3-methylpiperazine-1-carboxylate] | 500 to 2000 nM
20 | C[C@H]1CN(C(=O)OC(C)(C)C(F)(F)F)CCN1c1ncnc2c1c(N1CCCC1)cn2C1CCCCC1 [Compound 359, 1,1,1-trifluoro-2-methylpropan-2-yl (S)-4-(7-cyclohexyl-5-(pyrrolidin-1-yl)-7H-pyrrolo[2,3-d]pyrimidin-4-yl)-3-methylpiperazine-1-carboxylate] | 100 to 500 nM
21 | COc1cc(OC)cc(-n2cc(C3CC3)c3c(N4CCN(C(=O)OC(C)(C)C)C[C@@H]4C)ncnc32)c1 [Compound 289, tert-butyl (S)-4-(5-cyclopropyl-7-(3,5-dimethoxyphenyl)-7H-pyrrolo[2,3-d]pyrimidin-4-yl)-3-methylpiperazine-1-carboxylate] | 100 to 500 nM
